Here are results for 69 compounds from the PolyMetriX glass transition set.

SMILES strings stand for the structures.

Compound `*/C(Cl)=C(/*)CCCC` (repeat unit) registered a glass transition temperature of 190.00 °C.

On to `*CCCC(=O)Nc1ccc(NC(=O)CCCN2C(=O)c3ccc(C(=O)c4ccc5c(c4)C(=O)N(*)C5=O)cc3C2=O)cc1` (repeat unit), for which the glass transition temperature amounted to 209.00 °C. As for `*CCCC(=O)Nc1ccc(Oc2ccc(NC(=O)CCCN3C(=O)c4ccc(C(=O)c5ccc6c(c5)C(=O)N(*)C6=O)cc4C3=O)cc2)cc1` (repeat unit), the figure is 198.00 °C.

`*CCCC(=O)Nc1ccc(Oc2ccc(Oc3ccc(NC(=O)CCCN4C(=O)c5ccc(C(=O)c6ccc7c(c6)C(=O)N(*)C7=O)cc5C4=O)cc3)cc2)cc1` (repeat unit) registered a glass transition temperature of 178.00 °C. As for `*CCCC(C)(C)CNC(=O)C(=O)N*` (repeat unit), the glass transition temperature amounted to 109.00 °C. The figure for `*CCCC(C)(C)CNC(=O)CCCC(=O)N*` (repeat unit) is 82.00 °C; for `*CCCC(C)(C)CNC(=O)CCCCC(=O)N*` (repeat unit) it is 77.00 °C; for `*CCCC(C)(C)CNC(=O)c1ccc(C(=O)N*)cc1` (repeat unit) it is 157.00 °C. Compound `*CCCC(C)CN1C(=O)c2ccc(C(=O)Oc3ccc4cc(OC(=O)c5ccc6c(c5)C(=O)N(*)C6=O)ccc4c3)cc2C1=O` (repeat unit) came in with a glass transition temperature of 130.00 °C. `*CCCC(C)CNC(=O)c1ccc(C(=O)N*)cc1` (repeat unit) had a glass transition temperature of 153.00 °C. Compound `*CCCC(CCNC(=O)c1ccc(C(=O)N*)cc1)C(C)C` (repeat unit) displayed a glass transition temperature of 150.00 °C. As to `*CCCCC(=O)NCc1ccc(CNC(=O)CCCCO*)cc1` (repeat unit), the glass transition temperature was found to be 70.00 °C.

As for `*CCCCC(=O)NCc1ccc(CNC(=O)CCCCS*)cc1` (repeat unit), the glass transition temperature is 70.00 °C. Regarding `*CCCCC(=O)O*` (repeat unit), the glass transition temperature was -66.00 °C. Turning to `*CCCCCC(=O)Nc1ccc(Oc2ccc(Oc3ccc(NC(=O)CCCCCN4C(=O)c5ccc(C(=O)c6ccc7c(c6)C(=O)N(*)C7=O)cc5C4=O)cc3)cc2)cc1` (repeat unit), the glass transition temperature amounted to 158.00 °C. The figure for `*CCCCCC(=O)Oc1ccc(OC(=O)CCCCCn2c(=O)c3cc4c(=O)n(*)c(=O)c4cc3c2=O)c(-c2ccccc2)c1` (repeat unit) is 82.00 °C; for `*CCCCCC(=O)Oc1ccc(OC(=O)CCCCCn2c(=O)c3cc4c(=O)n(*)c(=O)c4cc3c2=O)c(Cl)c1` (repeat unit) it is 87.00 °C; for `*CCCCCC(=O)Oc1ccc2ccc(OC(=O)CCCCCn3c(=O)c4cc5c(=O)n(*)c(=O)c5cc4c3=O)cc2c1` (repeat unit) it is 98.00 °C. `*CCCCCCCCCCC(=O)Nc1ccc(Cc2ccc(NC(=O)CCCCCCCCCCN3C(=O)c4ccc(C(=O)c5ccc6c(c5)C(=O)N(*)C6=O)cc4C3=O)cc2)cc1` (repeat unit) gave a glass transition temperature of 136.00 °C. `*CCCCCCCCCCC(=O)Nc1ccc(Oc2ccc(NC(=O)CCCCCCCCCCN3C(=O)c4ccc(C(=O)c5ccc6c(c5)C(=O)N(*)C6=O)cc4C3=O)cc2)cc1` (repeat unit): the glass transition temperature turned out to be 132.00 °C. With `*CCCCCCCCCCC(=O)Nc1ccc(Oc2cccc(NC(=O)CCCCCCCCCCN3C(=O)c4ccc(C(=O)c5ccc6c(c5)C(=O)N(*)C6=O)cc4C3=O)c2)cc1` (repeat unit), the glass transition temperature amounted to 126.00 °C. Consider `*CCCCCCCCCCC(=O)Oc1ccc2cc(OC(=O)CCCCCCCCCCn3c(=O)c4cc5c(=O)n(*)c(=O)c5cc4c3=O)ccc2c1` (repeat unit), for which the glass transition temperature turned out to be 66.00 °C. As for `*CCCCCCCCCCCCC(=O)O*` (repeat unit), the figure is -36.00 °C. As for `*CCCCCCCCCCCCC(c1ccc(O)cc1)C(*)c1ccc(O)cc1C` (repeat unit), the figure is -1.00 °C; as for `*CCCCCCCCCCCCCCC(=O)N*` (repeat unit), -7.00 °C; as for `*CCCCCCCCCCCNC(=O)CCCCCCCCCCCCCCCCCCC(=O)N*` (repeat unit), 29.00 °C. In turn, `*CCCCCCCCCCSS*` (repeat unit) came in with a glass transition temperature of -65.00 °C. `*CCCCCCCCCCSSS*` (repeat unit) yielded a glass transition temperature of -70.00 °C. For `*CCCCCCCCCNC(=O)CCCCCCCCCCCCCCCCCCC(=O)N*` (repeat unit), the glass transition temperature stood at 42.00 °C. As for `*CCCCCCCCCn1c(=O)c2cc3c(=O)n(*)c(=O)c3cc2c1=O` (repeat unit), the figure is 110.00 °C. In the case of `*CCCCCCCNC(=O)CCCCCCCCCCCCCCCCCCC(=O)N*` (repeat unit), the glass transition temperature turned out to be 46.00 °C. The figure for `*CCCCCCOC(=O)CCCCCCCCCCCCCCCCCCC(=O)OCCCCCCN1C(=O)c2ccc(S(=O)(=O)c3ccc4c(c3)C(=O)N(*)C4=O)cc2C1=O` (repeat unit) is 19.00 °C; for `*CCCCCNC(=O)CCCCCCCCCCCCCCCCCCC(=O)N*` (repeat unit) it is 52.00 °C. `*CCCCCOC(=O)CCCCCCCCCCN1C(=O)c2ccc(-c3ccc(-c4ccc5c(c4)C(=O)N(CCCCCCCCCCC(=O)OCCCCCN4C(=O)c6ccc(-c7ccc8c(c7)C(=O)N(*)C8=O)cc6C4=O)C5=O)cc3)cc2C1=O` (repeat unit) came in with a glass transition temperature of 41.00 °C. The figure for `*CCCCCOCO*` (repeat unit) is -80.00 °C.

Compound `*CCCCCSS*` (repeat unit) had a glass transition temperature of -72.00 °C. In the case of `*CCCCOC(=O)CCCCCCCCCCCCCCCCCCCCCCCCCCCCCCCCCCC(=O)O*` (repeat unit), the glass transition temperature is -55.00 °C.

`*CCCN(*)C(=O)CC` (repeat unit) showed a glass transition temperature of 8.00 °C. For `*CCCN(*)C(=O)CCCCC` (repeat unit), the glass transition temperature was -16.00 °C. As to `*CCCN(*)C(=O)c1ccccc1` (repeat unit), the glass transition temperature was 72.00 °C.

Take `*CCCNC(=O)CCCCC(=O)NCCCN(*)C` (repeat unit): the glass transition temperature came to 5.00 °C. Compound `*CCCP(C)(=O)CCCNC(=O)CCCCC(=O)N*` (repeat unit) came in with a glass transition temperature of 33.00 °C. The figure for `*CCC[Si](*)(C)C` (repeat unit) is -55.00 °C; for `*CCC[Si](*)(C)O[Si](C)(C)CCCOc1ccc(-c2ccc(C#N)cc2)cc1` (repeat unit) it is -4.60 °C. `*CCC[Si](*)(C)O[Si](C)(C)CCCOc1ccc(C#N)cc1` (repeat unit) returned a glass transition temperature of -45.50 °C.

Turning to `*CCC[Si](*)(C)O[Si](C)(C)CCCOc1ccc(C(=O)Oc2ccc(-c3ccc(C#N)cc3)cc2)cc1` (repeat unit), the glass transition temperature amounted to 10.10 °C. Take `*CCC[Si](*)(C)c1ccc(N(C)C)cc1` (repeat unit): the glass transition temperature is 6.50 °C. As for `*CCC[Si](*)(C[Si](C)(C)c1ccccc1)C[Si](C)(C)c1ccccc1` (repeat unit), the figure is -36.00 °C; as for `*CCC[Si](*)(c1ccc(C)cc1)c1ccc(C)cc1` (repeat unit), 38.00 °C; as for `*CCC[Si](C)(C)O[Si](C)(C)CCCN1C(=O)c2ccc(C(=O)c3ccc4c(c3)C(=O)N(*)C4=O)cc2C1=O` (repeat unit), 68.00 °C. The compound `*CC[CH2][Sn]([CH3])([CH3])[CH2]CCOC(=O)C(CCCCCCCCOc1ccc(-c2ccc(OCc3ccc(C#N)cc3)cc2)cc1)C(=O)O*` (repeat unit) displayed a glass transition temperature of 22.00 °C. `*CCN(*)C(=O)CC` (repeat unit) yielded a glass transition temperature of 60.00 °C.

On to `*CCN(*)C(=O)CC(C)C` (repeat unit), for which the glass transition temperature was determined as 30.00 °C.

For the compound `*CCN(*)C(=O)CC12CC3CC(CC(C3)C1)C2` (repeat unit), the glass transition temperature was determined as 139.00 °C.

As to `*CCN(*)C(=O)CCC(=O)OC` (repeat unit), the glass transition temperature stood at 31.00 °C. `*CCN(*)C(=O)CCCCCC` (repeat unit): the glass transition temperature was 10.00 °C. The figure for `*CCN(*)C(=O)CCCCCCCCCCC` (repeat unit) is 10.00 °C; for `*CCN(*)C(=O)CSC` (repeat unit) it is 39.00 °C. Take `*CCN(*)C(=O)Cc1ccc(C(F)(F)F)cc1` (repeat unit): the glass transition temperature was found to be 75.00 °C. The compound `*CCOCCOC(=O)CCCCCCCCCCCCCCCCC(=O)O*` (repeat unit) showed a glass transition temperature of -68.00 °C. Compound `*Nc1ccc(Cc2ccc(NC(=O)c3cc(NC(=O)c4ccncc4)cc(C(*)=O)c3)cc2)cc1` (repeat unit) showed a glass transition temperature of 302.00 °C. As for `*Nc1ccc(NC(=O)c2cc(-c3ccc(C(=O)O)c(C(*)=O)c3)ccc2C(=O)O)cc1` (repeat unit), the figure is 248.40 °C; as for `*Nc1ccc(NC(=O)c2cc(-c3ccc(C(=O)OC)c(C(*)=O)c3)ccc2C(=O)OC)cc1` (repeat unit), 234.20 °C.

Turning to `*Oc1ccc(-c2ccc(OC(=O)CCCCCCCCCCCCC(*)=O)cc2)cc1` (repeat unit), the glass transition temperature stood at 95.00 °C. `*Oc1ccc(NC(=O)c2cc(C(=O)Nc3ccc(Oc4ccc(C(C)(C)c5ccc(*)cc5)cc4)cc3)cc(C(C)(C)C)c2)cc1` (repeat unit) showed a glass transition temperature of 244.00 °C. `*Oc1ccc(NC(=O)c2cc(C(=O)Nc3ccc(Oc4ccc(C(c5ccc(*)cc5)(C(F)(F)F)C(F)(F)F)cc4)cc3)cc(C(C)(C)C)c2)cc1` (repeat unit) had a glass transition temperature of 255.50 °C.

Regarding `*Oc1ccc(NC(=O)c2cc(NC(=O)c3ccc(OC(C)=O)cc3)cc(C(=O)Nc3ccc(Oc4ccc(C(C)(C)c5ccc(*)cc5)cc4)cc3)c2)cc1` (repeat unit), the glass transition temperature stood at 243.00 °C. In turn, `*c1ccc2c(c1)C(=O)N(c1ccc(N(C)CCN(C)c3ccc(N4C(=O)c5ccc(C(*)(C(F)(F)F)C(F)(F)F)cc5C4=O)cc3)cc1)C2=O` (repeat unit) returned a glass transition temperature of 227.00 °C.

`*c1nc(-c2ccccc2)nc(N(C)CCCCCCN(*)C)n1` (repeat unit) gave a glass transition temperature of 57.00 °C.
